The values that follow come from patent US5204475A, “Substituted 3-aminosydnone imines and salts thereof” (Cassella Aktiengesellschaft, priority 1990, dated 1993).

The subject of the assay is spiral strips of the pulmonary artery of the guinea-pig. The assay is described as follows: Relaxation of potassium-depolarised, CaCl2-contracted spiral strips of the pulmonary artery of the guinea-pig (modified method of Godfraind and Kaba and of Schuman et al.). The conditions noted are these: depolarised with 40 mmol/1 potassium, contraction by 0.5 mmol/1 CaCl2; for pIC50: Cavia porcellus, cumulative addition, average of 4 to 6 vessel strips, read-out: IC50 (concentration of the test substance which inhibits the contraction by 50%). On the procedure:
The pharmacological action of the compounds of the formula I was determined by a modified method of Godfraind and Kaba (Arch. Int. Pharmacodyn. Ther. I96, (Suppl) 35 to 49, 1972) and of Schuman et al. (Naunyn-Schmiedeberg's Arch Pharmacol. 289, 409 to 418, 1975). In this connection, spiral strips of the pulmonary artery of the guinea-pig are depolarised with 40 mmol/1 of potassium after equilibration in calcium-free Tyrode solution. An addition of 0.5 mmol/1 of CaCl2 then induces a contraction. The relaxing action of the test substance is determined by cumulative addition in 1/2 log 10 stepped concentrations. From the concentration-effect curve (abscissa: -log mol/1 of test substance, ordinate: % inhibition of the maximum contraction, average value of 4 to 6 vessel strips), the concentration of the test substance is determined which inhibits the contraction by 50% (=IC50, mol/1). The duration of action of the test substance is given by the time which is needed after the addition of the test substance until the starting value is obtained again.

pIC50: −log10 of the molar value. Some results are limits rather than exact numbers.

On to `Cl.N=c1c[n+](N2CCC(C(=O)O)CC2)[n-]o1` [Example 2, 3-(4-Carboxypiperidino)sydnone imine hydrochloride], for which the pIC50 was 4.62 and the “Duration of action in minutes (time needed after addition of the test substance until the starting value is obtained again)” value (shortened to “Duration of action in minutes”) is above 300 min.
Consider `Cl.N=c1c[n+](N2CCC[C@H]2C(=O)O)[n-]o1` [Example 3, (S)-3-(2-Carboxypyrrolidino)sydnone imine hydrochloride], for which the pIC50 was 4.70 and the “Duration of action in minutes” value is above 300 min.
Turning to `Cl.N=c1c[n+](N2CCCCC2C(=O)O)[n-]o1` (stereo not drawn) [Example 1, 3-(2-Carboxypiperidino)sydnone imine hydrochloride], the pIC50 is 5.22 and the “Duration of action in minutes” value is above 300 min.
